Experimental data: patent US20260152533A1, “COMBINATION INHIBITORS FOR TREATING FIBROSIS” (Memorial Sloan-Kettering Cancer Center, priority 2021, published 2026)

Columns and labels:
Type in all cases: cell-based, mouse
[1] = system: pancreatic stellate cells (PSCs); experiment: Collagen abundance in ECM derived from confluent PSCs; details: Gln 20% or lower, TGFβ (FIG. 8C)
Description: (§1) Culture plates were coated with 0.1% gelatin (Sigma) and treated with 1% glutaraldehyde (Sigma) and 1 M ethanolamine (Sigma). Confluent NIH-3T3 cells, MFBs or PSCs were grown for 6 days on coated plates in the presence of […] sodium ascorbate (Sigma) and treated as indicated, and the medium was replaced every other day. Plates were decellularized with 20 mM ammonium hydroxide/0.5% Triton-X 100 for 5 min on a rotating platform. Three times the volume of PBS was added, and ECM was equilibrated overnight at 4° C., followed by four additional PBS washes. For western blot, preheated sample buffer supplemented with 1 mM dithiothreitol (DTT) was added, ECM was scraped off and boiled, and proteins were separated by SDS-PAGE followed by immunoblotting. To measure collagen abundance, fibroblast-derived ECM was stained with the Picro Sirius Red Stain Kit (Abcam) according to the manufacturer's instructions. The stain was extracted with 0.1 M sodium hydroxide (NaOH) and optical density was measured at 550 nm using a microplate reader. Differences in cell number were controlled for by growing cells on separate plates under the same experimental conditions.

[2] = system: pancreatic stellate cells (PSCs); experiment: Growth experiments, PSCs; details: 20% Gln, TGFβ
Excerpt: NIH-3T3 cells were obtained from ATCC (CRL-1658); 293 T cells were obtained from ATCC (CRL-3216). PSCs were isolated from C57BL/6 mice by differential centrifugation as previously described^49 and their mesenchymal origin was validated by analyzing the expression of various mesenchymal and epithelial markers. MFBs were isolated from FVB/N mice by differential centrifugation as previously described^50. DB7 mouse breast cancer cells were obtained from Alexander Borowsky (University of California Davis Comprehensive Cancer Center, Sacramento, CA, USA) through an MTA to Ohio State University (OSU). KPC (Kras^LSL-G12D; Trp53^LSL-R172H; Pdx1-Cre) mouse PDAC cells were a gift from Scott Lowe (Memorial Sloan Kettering Cancer Center. (MSKCC)). […]
A total of 0.2×10^5 cells/well were plated in 24-well culture plates and media was changed and treatments started 5-6 hours later. Cell numbers at the start of treatment (day 0 “d 0”) and 1, 2 and 3 days later were counted using the Multisizer 4e (Beckman) and normalized to the cell number at d 0. In co-culture assays, a fraction of the cell population was analyzed by flow cytometry for GFP expression, and the rest counted with the Multisizer 4e. The number of KPC-GFP cells was determined by multiplying the fraction of GFP+ cells with the total number of cells.

[3] = system: mammary fibroblasts (MFBs); experiment: Collagen abundance in ECM derived from confluent MFBs; details: Gln 20% or lower, TGFβ (FIG. 8F)
Description: as §1

TGFβ: transforming growth-factor beta; TGFβ-1 purchased from Peprotech
collagen accumulation in the ECM [1]: could no longer stimulate
cell proliferation [2]: unable to proliferate
collagen accumulation in the ECM [3]: could no longer stimulate
